{"source": "paper PMC6681697", "about": "“One-Step ^18F-Labeling and Preclinical Evaluation of Prostate-Specific Membrane Antigen Trifluoroborate Probes for Cancer Imaging” (Journal of Nuclear Medicine, 2019)", "key": {"PSMA": {"target": "T1, PSMA (Homo sapiens, UniProt Q04609)", "T1 construct": "because it expresses PSMA endogenously and is commonly used to evaluate PSMA-targeting radiotracers; endogenous in cells; host or cells: LNCaP cells", "T1 sequence (Q04609 whole entry)": "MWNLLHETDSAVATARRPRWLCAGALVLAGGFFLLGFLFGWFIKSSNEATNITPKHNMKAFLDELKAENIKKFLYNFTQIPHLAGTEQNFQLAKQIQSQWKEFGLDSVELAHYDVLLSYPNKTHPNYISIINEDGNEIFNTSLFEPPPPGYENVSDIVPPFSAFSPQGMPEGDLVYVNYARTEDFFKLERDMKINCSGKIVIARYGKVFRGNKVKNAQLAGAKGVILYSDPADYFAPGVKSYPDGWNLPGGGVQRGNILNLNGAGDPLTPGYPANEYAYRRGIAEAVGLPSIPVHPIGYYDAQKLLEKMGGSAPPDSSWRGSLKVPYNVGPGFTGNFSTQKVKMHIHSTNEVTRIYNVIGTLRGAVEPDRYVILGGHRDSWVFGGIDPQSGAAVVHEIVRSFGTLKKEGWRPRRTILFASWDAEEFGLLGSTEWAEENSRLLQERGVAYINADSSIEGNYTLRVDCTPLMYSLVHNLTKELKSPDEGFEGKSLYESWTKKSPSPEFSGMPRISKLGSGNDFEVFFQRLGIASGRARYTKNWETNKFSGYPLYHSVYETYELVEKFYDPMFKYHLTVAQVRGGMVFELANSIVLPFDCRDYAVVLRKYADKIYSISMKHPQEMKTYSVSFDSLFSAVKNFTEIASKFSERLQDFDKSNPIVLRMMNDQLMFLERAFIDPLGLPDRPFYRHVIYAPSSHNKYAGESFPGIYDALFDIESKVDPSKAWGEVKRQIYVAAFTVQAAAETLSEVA", "test": "In vitro competition binding assay on LNCaP cells with ^18F-DCFPyL as radioligand", "conditions": "LNCaP cells, 0.1 nM ^18F-DCFPyL radioligand, 1 h at 37°C; n = 3", "description": "LNCaP cells were plated onto a 24-well poly-D-lysine coated plate for 48 h (400,000/well). […] Nonspecific binding was determined in the presence of 10 μM unlabeled DCFPyL. The assay mixtures were incubated for 1 h at 37°C with gentle agitation followed by 2 washes with cold HEPES buffered saline. A trypsin solution (0.25%, 400 μL) was then added to each well to harvest the cells. Radioactivity was measured by γ-counting, and Ki values were calculated using the “1 site—fit Ki” built-in model in Prism 7 (GraphPad)."}, "[1]": {"test": "Distribution coefficient (LogD7.4), shake flask method", "assay_type": "physicochemical", "conditions": "n-octanol / phosphate buffer 0.1 M pH 7.4; n = 3", "description": "LogD7.4 values were measured using the shake flask method. Briefly, an aliquot of ^18F-labeled tracer was added to a vial containing 2.5 mL of n-octanol and 2.5 mL of phosphate buffer (0.1 M, pH 7.4). The mixture was vortexed for 2 min and then centrifuged at 3,000g for 10 min. A sample of the n-octanol (0.1 mL) and buffer (0.1 mL) layers was counted using a γ-counter. Values of LogD7.4 were calculated using the following equation: LogD7.4 = log10 [(counts in n-octanol phase)/(counts in buffer phase)]."}, "LNCaP xenografts": {"system": "LNCaP xenografts", "test": "Ex vivo biodistribution and blocking studies in mice bearing LNCaP xenografts", "conditions": "for tumor uptake: LNCaP tumor", "description": "Imaging and biodistribution experiments were performed using NODSCID IL2RγKO male mice. All experiments were conducted according to the guidelines established by the Canadian Council on Animal Care and approved by the Animal Ethics Committee of the University of British Columbia. Mice were anesthetized by inhalation with 2% isoflurane in oxygen and implanted subcutaneously with 1 × 10^7 LNCaP cells behind the left shoulder. The mice were imaged or used in biodistribution studies once the tumor reached 5–8 mm in diameter (5–6 wk).\nFor biodistribution and blocking studies, the mice were injected with 1–3 MBq of radiotracer. At 60 min, the mice were anesthetized with 2% isoflurane inhalation and euthanized by CO2 inhalation. Blood was withdrawn by cardiac puncture, and the organs and tissues of interest were collected, weighed, and counted using an automatic γ-counter (PerkinElmer). Uptake values were expressed as the percentage of the injected dose per gram of tissue (%ID/g).\nA standard 1-way ANOVA was performed to determine whether statistically significant differences in tumor uptake occurred between radiotracers. Each radiotracer was compared with ^18F-DCFPyL using the Dunnett test (a many-to-one t test comparison). This analysis was also performed for kidney and blood activity and for tumor-to-blood and tumor-to-muscle ratios. Reported P values were adjusted for multiple comparisons. The analysis was performed using Prism 8 (GraphPad). […]\nStatistical analyses were performed using GradPad prism 7. Multiple t tests were performed to compare biodistribution in unblocked and blocked mice, multiple comparisons were corrected using the Holm-Sidak method. The difference was considered statistically significant when p value was < 0.05.\nSupplemental Table 1 – Complete biodistribution study for compounds [18F]1–3 […]\nTissue 1h 1h blocked 1h 1h blocked 1h 1h blocked\n(%ID/g) n = 8 n = 4 n = 6 n = 4 n = 8 n = 5 […]\n(1 picture or pasted object on this page, not shown here)"}, "[2]": {"conditions": "1 h blocked (coinjection of DCFPyL 0.5 mg)"}}, "data": [{"smiles": "C[N+](C)(Cc1ccc(C(=O)NCCCC[C@H](NC(=O)N[C@@H](CCC(=O)O)C(=O)O)C(=O)O)cc1)C[B-](F)(F)F", "note": "[^18F-1]", "values": [{"measurement": "Ki", "setting": "PSMA", "value": "14.4 ± 2.7", "unit": "nM"}, {"measurement": "LogD7.4", "setting": "[1]", "value": "−3.43 ± 0.35"}, {"measurement": "T/B (tumor-to-blood ratio)", "setting": "LNCaP xenografts; 1 h after injection, unblocked", "value": "10.82 ± 1.64"}, {"measurement": "T/K (tumor-to-kidney ratio)", "setting": "LNCaP xenografts; 1 h after injection, unblocked", "value": "0.07 ± 0.06"}, {"measurement": "T/M (tumor-to-muscle ratio)", "setting": "LNCaP xenografts; 1 h after injection, unblocked", "value": "23.43 ± 3.71"}, {"measurement": "adrenal uptake", "setting": "LNCaP xenografts; 1 h after injection, unblocked", "value": "4.77 ± 1.75", "unit": "%ID/g"}, {"measurement": "blood uptake", "setting": "LNCaP xenografts; 1 h after injection, unblocked", "value": "0.57 ± 0.15", "unit": "%ID/g"}, {"measurement": "bone uptake", "setting": "LNCaP xenografts; 1 h after injection, unblocked", "value": "0.36 ± 0.02", "unit": "%ID/g"}, {"measurement": "brain uptake", "setting": "LNCaP xenografts; 1 h after injection, unblocked", "value": "0.04 ± 0.01", "unit": "%ID/g"}, {"measurement": "fat uptake", "setting": "LNCaP xenografts; 1 h after injection, unblocked", "value": "0.99 ± 0.39", "unit": "%ID/g"}, {"measurement": "heart uptake", "setting": "LNCaP xenografts; 1 h after injection, unblocked", "value": "0.30 ± 0.06", "unit": "%ID/g"}, {"measurement": "intestine uptake", "setting": "LNCaP xenografts; 1 h after injection, unblocked", "value": "0.54 ± 0.11", "unit": "%ID/g"}, {"measurement": "kidney uptake", "setting": "LNCaP xenografts; 1 h after injection, unblocked", "value": "114.00 ± 41.30", "unit": "%ID/g"}, {"measurement": "liver uptake", "setting": "LNCaP xenografts; 1 h after injection, unblocked", "value": "2.90 ± 0.56", "unit": "%ID/g"}, {"measurement": "lung uptake", "setting": "LNCaP xenografts; 1 h after injection, unblocked", "value": "1.37 ± 0.36", "unit": "%ID/g"}, {"measurement": "muscle uptake", "setting": "LNCaP xenografts; 1 h after injection, unblocked", "value": "0.26 ± 0.08", "unit": "%ID/g"}, {"measurement": "pancreas uptake", "setting": "LNCaP xenografts; 1 h after injection, unblocked", "value": "0.55 ± 0.16", "unit": "%ID/g"}, {"measurement": "spleen uptake", "setting": "LNCaP xenografts; 1 h after injection, unblocked", "value": "2.67 ± 0.98", "unit": "%ID/g"}, {"measurement": "stomach uptake", "setting": "LNCaP xenografts; 1 h after injection, unblocked", "value": "0.12 ± 0.05", "unit": "%ID/g"}, {"measurement": "testes uptake", "setting": "LNCaP xenografts; 1 h after injection, unblocked", "value": "0.62 ± 0.15", "unit": "%ID/g"}, {"measurement": "tumor uptake compared with ^18F-DCFPyL", "setting": "LNCaP xenografts; 1 h after injection, 1-way ANOVA, Dunnett test", "value": "lower tumor uptake than ^18F-DCFPyL"}, {"measurement": "T/B (tumor-to-blood ratio)", "setting": "LNCaP xenografts; [2]", "value": "0.91 ± 0.44"}, {"measurement": "T/K (tumor-to-kidney ratio)", "setting": "LNCaP xenografts; [2]", "value": "0.10 ± 0.03"}, {"measurement": "T/M (tumor-to-muscle ratio)", "setting": "LNCaP xenografts; [2]", "value": "2.63 ± 1.10"}, {"measurement": "adrenal uptake", "setting": "LNCaP xenografts; [2]", "value": "0.35 ± 0.14", "unit": "%ID/g"}, {"measurement": "blood uptake", "setting": "LNCaP xenografts; [2]", "value": "0.45 ± 0.27", "unit": "%ID/g"}, {"measurement": "bone uptake", "setting": "LNCaP xenografts; [2]", "value": "0.30 ± 0.07", "unit": "%ID/g"}, {"measurement": "brain uptake", "setting": "LNCaP xenografts; [2]", "value": "0.03 ± 0.01", "unit": "%ID/g"}, {"measurement": "fat uptake", "setting": "LNCaP xenografts; [2]", "value": "0.14 ± 0.08", "unit": "%ID/g"}, {"measurement": "heart uptake", "setting": "LNCaP xenografts; [2]", "value": "0.15 ± 0.04", "unit": "%ID/g"}, {"measurement": "intestine uptake", "setting": "LNCaP xenografts; [2]", "value": "0.57 ± 0.23", "unit": "%ID/g"}, {"measurement": "kidney uptake", "setting": "LNCaP xenografts; [2]", "value": "3.54 ± 0.83", "unit": "%ID/g"}, {"measurement": "liver uptake", "setting": "LNCaP xenografts; [2]", "value": "3.00 ± 0.53", "unit": "%ID/g"}, {"measurement": "lung uptake", "setting": "LNCaP xenografts; [2]", "value": "0.25 ± 0.06", "unit": "%ID/g"}, {"measurement": "muscle uptake", "setting": "LNCaP xenografts; [2]", "value": "0.13 ± 0.03", "unit": "%ID/g"}, {"measurement": "pancreas uptake", "setting": "LNCaP xenografts; [2]", "value": "0.11 ± 0.03", "unit": "%ID/g"}, {"measurement": "spleen uptake", "setting": "LNCaP xenografts; [2]", "value": "0.13 ± 0.03", "unit": "%ID/g"}, {"measurement": "stomach uptake", "setting": "LNCaP xenografts; [2]", "value": "0.11 ± 0.08", "unit": "%ID/g"}, {"measurement": "testes uptake", "setting": "LNCaP xenografts; [2]", "value": "0.10 ± 0.02", "unit": "%ID/g"}, {"measurement": "tumor uptake", "setting": "LNCaP xenografts; 1 h after injection, unblocked", "value": "6.0 ± 1.2", "unit": "%ID/g"}, {"measurement": "tumor uptake", "setting": "LNCaP xenografts; 1 h after injection, unblocked, listed as [18F]1", "value": "6.04 ± 1.24", "unit": "%ID/g"}, {"measurement": "tumor uptake", "setting": "LNCaP xenografts; [2]", "value": "0.33 ± 0.07", "unit": "%ID/g"}]}, {"smiles": "O=C(O)CCC(NC(=O)NC(CCCCNC(=O)c1ccc([18F])nc1)C(=O)O)C(=O)O", "note": "(centres unmarked) [^18F-DCFPyL, 2-(3-{1-carboxy-5-[(6-[^18F]fluoro-pyridine-3-carbonyl)-amino]-pentyl}-ureido)-pentanedioic acid, reference compound]", "values": [{"measurement": "logD at 2 min", "setting": "[1]", "value": "-3.12 ± 0.22"}, {"measurement": "adrenal uptake", "setting": "LNCaP xenografts; 1 h after injection, unblocked", "value": "3.02 ± 2.14", "unit": "%ID/g"}, {"measurement": "blood uptake", "setting": "LNCaP xenografts; 1 h after injection, unblocked", "value": "0.60 ± 0.13", "unit": "%ID/g"}, {"measurement": "bone uptake", "setting": "LNCaP xenografts; 1 h after injection, unblocked", "value": "0.33 ± 0.07", "unit": "%ID/g"}, {"measurement": "brain uptake", "setting": "LNCaP xenografts; 1 h after injection, unblocked", "value": "0.03 ± 0.01", "unit": "%ID/g"}, {"measurement": "fat uptake", "setting": "LNCaP xenografts; 1 h after injection, unblocked", "value": "1.05 ± 0.64", "unit": "%ID/g"}, {"measurement": "heart uptake", "setting": "LNCaP xenografts; 1 h after injection, unblocked", "value": "0.35 ± 0.12", "unit": "%ID/g"}, {"measurement": "intestine uptake", "setting": "LNCaP xenografts; 1 h after injection, unblocked", "value": "0.33 ± 0.07", "unit": "%ID/g"}, {"measurement": "kidney uptake", "setting": "LNCaP xenografts; 1 h after injection, unblocked", "value": "123.76 ± 37.67", "unit": "%ID/g"}, {"measurement": "liver uptake", "setting": "LNCaP xenografts; 1 h after injection, unblocked", "value": "1.82 ± 0.24", "unit": "%ID/g"}, {"measurement": "lung uptake", "setting": "LNCaP xenografts; 1 h after injection, unblocked", "value": "1.62 ± 0.68", "unit": "%ID/g"}, {"measurement": "muscle uptake", "setting": "LNCaP xenografts; 1 h after injection, unblocked", "value": "0.29 ± 0.12", "unit": "%ID/g"}, {"measurement": "pancreas uptake", "setting": "LNCaP xenografts; 1 h after injection, unblocked", "value": "0.58 ± 0.32", "unit": "%ID/g"}, {"measurement": "spleen uptake", "setting": "LNCaP xenografts; 1 h after injection, unblocked", "value": "3.98 ± 2.35", "unit": "%ID/g"}, {"measurement": "stomach uptake", "setting": "LNCaP xenografts; 1 h after injection, unblocked", "value": "0.12 ± 0.03", "unit": "%ID/g"}, {"measurement": "testes uptake", "setting": "LNCaP xenografts; 1 h after injection, unblocked", "value": "0.57 ± 0.21", "unit": "%ID/g"}, {"measurement": "tumor uptake", "setting": "LNCaP xenografts; 1 h after injection, unblocked", "value": "11.64 ± 3.52", "unit": "%ID/g"}]}]}
